Consider 1 compound from patent US12360023B2, “Method of pretreating blood sample” (LABTECHS Inc., priority 2017, dated 2025).

The test system of this series is Streptococcus agalactiae. Put plainly: Viability of bacteria under detergent treatment. The series is classed as cell-based.

In the case of `CCCCCCCCCCCCOS(=O)(=O)[O-].[Na+]` [SDS, sodium dodecyl sulfate], the “killing of bacteria by detergent” value (SDS concentration 0.05%) was “does not kill” and the “killing of bacteria by detergent” value (SDS concentration 0.1% or 0.2%) is “largely killed”.
